In US20110054031A1, “Ophthalmic NSAIDS as Adjuvants” (ISTA Pharmaceuticals, Inc., priority 2008, published 2011):

What was measured:
[1] = cited from earlier work
[2] = tested on: choroidal neovascularization (CNV); test: Laser photocoagulation-induced choroidal neovascularization in mice; type: in vivo, C57BL/6J mice; conditions: 2 weeks of treatment after laser burn, versus saline, BF 0.1% topical 4 μL four times per day, sVEGFR-1/Fc 250 ng
Procedure: Methods: Six-week female C57BL/6J mice received laser burns with 514-argon laser at the posterior retina; 19 mice with successful burns were randomly assigned to 1 of 3 treatment groups: BF 0.1%, saline with or without 250 ng sVEGFR-1/Fc immediately after laser burn. Mice were treated with 4 μL of BF 0.1% or saline four times per day for 2 weeks. Then deeply anaesthetized mice were perfused with 50 mg/mL flourescein-labeled dextran, eyes were enucleated and fixed in buffered formalin. Flat mounts of the RPE-choroid-sclera were observed by fluorescence microscope. Total area of hyperfluorescent neovascualature was measured using image-analysis software

COX-2 [3] = target: T1, COX-2 (Homo sapiens, UniProt P35354); conditions: cited from earlier work
T1 sequence (P35354 18-604): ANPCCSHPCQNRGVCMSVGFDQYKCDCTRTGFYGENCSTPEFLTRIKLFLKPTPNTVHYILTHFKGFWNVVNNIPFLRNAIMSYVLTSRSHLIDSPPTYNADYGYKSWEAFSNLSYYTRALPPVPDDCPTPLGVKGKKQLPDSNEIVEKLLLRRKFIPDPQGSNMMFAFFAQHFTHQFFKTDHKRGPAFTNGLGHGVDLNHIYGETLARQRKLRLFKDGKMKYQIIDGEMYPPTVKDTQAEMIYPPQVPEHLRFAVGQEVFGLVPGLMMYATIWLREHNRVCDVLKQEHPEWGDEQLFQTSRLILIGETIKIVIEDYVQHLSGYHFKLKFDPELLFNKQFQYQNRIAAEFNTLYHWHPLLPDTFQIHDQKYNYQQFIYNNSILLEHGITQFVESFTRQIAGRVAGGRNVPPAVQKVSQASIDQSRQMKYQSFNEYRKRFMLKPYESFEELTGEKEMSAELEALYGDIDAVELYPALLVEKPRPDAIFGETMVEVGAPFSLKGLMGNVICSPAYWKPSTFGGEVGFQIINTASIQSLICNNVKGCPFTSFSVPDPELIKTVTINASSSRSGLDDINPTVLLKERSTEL

[4] = target: T2, COX-2 purified from rabbit alveolar macrophage (Oryctolagus cuniculus, UniProt O02768); conditions: cited from earlier work
T2 construct: from tissue; host or cells: rabbit alveolar macrophage
T2 sequence (O02768 18-604): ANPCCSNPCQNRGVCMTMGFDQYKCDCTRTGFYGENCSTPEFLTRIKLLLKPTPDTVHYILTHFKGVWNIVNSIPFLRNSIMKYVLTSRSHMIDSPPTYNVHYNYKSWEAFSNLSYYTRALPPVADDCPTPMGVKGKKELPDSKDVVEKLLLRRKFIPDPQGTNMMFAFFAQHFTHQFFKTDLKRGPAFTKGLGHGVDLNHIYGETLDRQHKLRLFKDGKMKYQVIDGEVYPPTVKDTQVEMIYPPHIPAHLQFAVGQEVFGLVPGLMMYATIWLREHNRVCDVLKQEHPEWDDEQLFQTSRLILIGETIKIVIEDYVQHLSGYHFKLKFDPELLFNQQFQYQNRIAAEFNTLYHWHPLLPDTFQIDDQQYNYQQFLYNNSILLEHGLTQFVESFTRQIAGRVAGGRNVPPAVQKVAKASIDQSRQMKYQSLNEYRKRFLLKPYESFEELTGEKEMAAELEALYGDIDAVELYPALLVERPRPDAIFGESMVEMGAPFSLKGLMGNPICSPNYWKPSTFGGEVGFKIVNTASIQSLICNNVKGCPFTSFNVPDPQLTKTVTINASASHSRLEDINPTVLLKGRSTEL

human recombinants COX-2 = target: T3, human recombinants COX-2 (Homo sapiens, UniProt P35354); conditions: relative to ketorolac; cited from earlier work
T3 sequence (P35354 18-604): T1 sequence (P35354 18-604)

prostaglandin synthesis = conditions: in vitro, relative to indomethacin; cited from earlier work
[5] = eye drops; cited from earlier work
COX-2 [6] = target: T1, COX-2; test: COX-2 enzyme inhibition (Table 1, relative potency of ocular NSAIDs); type: biochemical; conditions: ratio of IC50 values
Excerpt: NSAIDs vary in their relative potency against COX-1 and COX-2. […] Several in vitro assays are used to determine IC50 values, making the values dependent upon the animal model (tissue and stimulus) used in the experiment and variable between laboratories. Thus, it is important that the assay type is defined when making comparisons between IC50 measurements.

COX-1 = COX-1 (Homo sapiens, UniProt P23219); conditions: cited from earlier work
COX-1, sequence (P23219 24-599): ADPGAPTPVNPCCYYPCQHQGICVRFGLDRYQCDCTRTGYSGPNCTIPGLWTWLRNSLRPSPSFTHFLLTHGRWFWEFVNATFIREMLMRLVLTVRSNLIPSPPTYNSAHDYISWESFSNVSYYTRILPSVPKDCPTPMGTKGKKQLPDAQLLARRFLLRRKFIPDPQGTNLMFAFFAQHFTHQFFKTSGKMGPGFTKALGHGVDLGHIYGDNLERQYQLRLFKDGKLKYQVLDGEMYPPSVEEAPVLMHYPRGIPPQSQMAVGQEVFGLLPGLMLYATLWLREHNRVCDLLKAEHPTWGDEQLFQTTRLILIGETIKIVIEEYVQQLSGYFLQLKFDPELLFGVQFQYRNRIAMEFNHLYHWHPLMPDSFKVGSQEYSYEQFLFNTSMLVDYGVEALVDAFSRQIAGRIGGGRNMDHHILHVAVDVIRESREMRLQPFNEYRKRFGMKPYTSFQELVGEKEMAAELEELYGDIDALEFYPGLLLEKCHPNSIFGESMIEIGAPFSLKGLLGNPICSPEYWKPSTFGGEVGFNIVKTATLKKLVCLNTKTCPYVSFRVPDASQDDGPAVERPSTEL

In the case of “Lucentis: recombinant humanized IgG1 kappa isotype monoclonal antibody fragment designed for intravitreal use”, the “rate of arterial thromboembolic events” value ([1]; Lucentis clinical trials) is listed as < 4%, the “serious adverse reactions related to the intravitreal injection procedure” value ([1]; endophthalmitis, rhegmatogenous retinal detachments, iatrogenic traumatic cataracts) is listed as < 0.1 % of injections and the “time after intravitreal injection at which increases in intraocular pressure were noted” value ([1]; human, in vivo) is listed as ≤ 60 min. The “other serious ocular adverse reactions” value ([1]; intraocular inflammation and increased intraocular pressure) was < 2 % of patients.

In the case of `Nc1c(CC(=O)[O-])cccc1C(=O)c1ccc(Br)cc1.Nc1c(CC(=O)[O-])cccc1C(=O)c1ccc(Br)cc1.O.O.O.[Na+].[Na+]` [bromfenac, sodium 2-amino-3-(4-bromobenzoyl)phenylacetate sesquihydrate], the “reduction of area of choroidal neovascularization (CNV lesions)” value [2] is given as 71%, the IC50 (COX-2 [3]) is given as 23 nM and the “inhibitory effect on COX-2, times greater than amfenac” value ([4]; relative to amfenac) is given as 6.5 times. For the same compound, the “inhibitory effect on COX-2, times greater than diclofenac” value ([4]; relative to diclofenac) was 3.7 times, the “inhibitory effect on COX-2, times more potent than ketorolac” value (human recombinants COX-2) was 18 times and the “inhibition of prostaglandin synthesis, times greater than indomethacin” value (prostaglandin synthesis) was “approximately 12 times”. The “stability in aqueous solution” value [5] was “stable for a long period of time”.

For `NC(=O)Cc1cccc(C(=O)c2ccccc2)c1N` [nepafenac, 2-amino-3-benzoyl-benzeneacetamide], the “Ratio COX-1/COX-2” value (COX-2 [6]) is listed as 1.67, the IC50 (COX-1) is listed as 250 nM and the IC50 (COX-2 [3]) is listed as 150 nM.

For `NC(CO)(CO)CO.O=C(c1ccccc1)c1ccc2n1CCC2C(=O)O` (racemic) [ketorolac, (±)-5-benzoyl-2,3-dihydro-1H pyrrolizine-1-carboxylic acid, 2-amino-2-(hydroxymethyl)-1,3-propanediol salt (1:1)], the “Ratio COX-1/COX-2” value (COX-2 [6]) is given as 0.167, the IC50 (COX-1) is given as 20 nM and the IC50 (COX-2 [3]) is given as 120 nM.
